# Laboratory results from patent US20070032453A1, “ADJUVANT CHEMOTHERAPY FOR ANAPLASTIC GLIOMAS” (Oklahoma Medical Research Foundation, priority 2005, published 2007).
# “Also recorded” adds a separate entry of the source.
# Assays:
# C6 gliomas [1] = test: C6 glioma growth in rats monitored by T2-weighted MRI (tumor volumes, ImageJ); assay type: in vivo, rat
# Procedure: (§1) Cells injection. Three-month-old male Fischer 344 rats (250-350 g) were fed a choline-deficient diet. Each animal was anesthetized (3% isoflurane at 2.5 L/mn oxygen) and placed on a stereotaxic device (Stoelting, USA). The skin of the head was cleaned and incised. A hole was drilled through the skull 2 mm anterior and 2 mm lateral to the bregma, in the right-hand side of the skull. C6, 9L/LacZ or F98 cells (10^6 in 10 μL cell culture media) in a ultra-low gelling temperature agarose are injected in the cortex at a 3 mm-depth at a rate of 2 μL/mn. A waiting time of 2 min was implemented following injection and bone wax was put in the burr-hole to prevent any reflux. The wound was sutured and covered with surgical glue. The surgery was performed in sterile conditions. The syringes containing the C6, 9L/LacZ or F98 cells are kept at 37° C. until the moment of use.
# PBN treatment. […] The treatment was continuous and was started at different time points. […] Some rats were not treated and served as controls (n=5).
# MRI experiments. MRI experiments were performed on a 7 Tesla-30 cm horizontal bore magnet (Bruker BioSpin MRI Gmbh, Germany) at day 6-10 after the cells were injected and then every 2-3 days until the death of the rat. The animal was anesthetized (1.5% isoflurane at 1.5 L/mn oxygen) and placed in a MR probe (Bruker BioSpin MRI Gmbh, Germany). A head coil (Bruker BioSpin MRI Gmbh, Germany) was put on its head and the brain was localized.
# (§2) Tumor growth monitoring. T1/T2-weighted images were obtained by a double-echo multi-slice spin echo method. Twenty-four axial slices of 1 mm thickness with an interslice distance of 1 mm were taken with a repetition time of 2369.64 ms and echo times of 17.41 ms and 63.85 ms for an acquisition time of 20 min. Tumor volumes were determined with the software ImageJ 1.32j (NIH, USA).
# A T2-weighted morphological MRI method was used.
# C6 gliomas [2] = test: MR angiography of C6 gliomas (angiogenesis, arterial blood volumes); assay type: in vivo, rat
# Procedure: Angiography. Coronal slices are acquired by a FLASH (fast low angle shot) method with a volume of interest of 2.7×1.7×1.2 cm^3, an echo time of 2.3 ms, a repetition time of 25 ms and a flip angle of 25° for an acquisition time of 27 min. A MIP (maximum intensity projection) technique was then applied to the data to obtain a 3D-angiography. Angiography was used to visualize new blood vessel formation, i.e., angiogenesis.
# The method used was quantitative analysis (using a Mathematica-based program developed in our laboratory) of arterial signal intensities from in vivo MR angiography data. Glioma region arterial blood volumes were compared to blood volumes in the contralateral control cerebral hemisphere.
# F98 gliomas = test: F98 glioma growth in rats monitored by T2-weighted MRI; assay type: in vivo, rat; settings: PBN five days prior to intracerebral cell implantation
# Procedure: as §1, §2
# C6 gliomas [3] = test: Image-guided MR spectroscopy, metabolite ratios in C6 glioma; assay type: in vivo, rat; settings: C6 glioma rats treated with PBN
# Procedure: MRS experiments. Water suppression was performed by a CHESS (chemical shift suppression) method. A spectrum was acquired in a […] voxel in the tumor region and in the contralateral control side of the brain, by using PRESS (point resolved spectroscopy) with a repetition time of 3000 ms, an echo time of 21.34 ms for an acquisition time of 13 min. An outer volume suppression tool was used to get rid of the 5 mm thick surrounding signal around the voxel. The metabolite peaks were assigned as follows, based on previous literature (Fan et al., 2004; Griffin et al., 2003): NAA at 2.02 ppm, Cr at 3.03 ppm, Cho at 3.25 ppm and mobile lipids at 1.33 ppm (methylene group) and 0.9 ppm (methyl group). Peak areas were calculated in reference to Cr peak and relative ratios were determined: NAA/Cho, NAA/Cr, Cho/Cr and Lipids/Cr. A decrease in NAA levels and an increase in lipids are indicative of the presence of a glioma (Ishimaru et al., 2001).
# MR spectral peak areas were measured using the Bruker XWIN NMR peak intragration software package.
# C6 gliomas [4] = test: Histology (H&E) of C6 glioma rat brain; assay type: in vivo; settings: C6 rat glioma treated with PBN
# From the text: Note that PBN-treated C6 glioma rat brain has neuronal cells that appear similar to control rat brain. Untreated C6 glioma depicts malignant cells that are atypical in appearance (grade II to III) with few mitotic and apoptotic figures being present.
# Conclusion. […] The malignant cells in the large neoplastic mass (FIG. 8B) were moderately atypical in appearance (grade II to III) with few mitotic and apoptotic figures being present. Large central areas of the mass […]) were also necrotic.
# C6 gliomas [5] = test: Survival of rats with intracerebral C6 glioma; assay type: in vivo, rat
# From the text: FIG. 11—Anti-Glioma Therapy/Percent Survival. […] Based on survival data obtained from FIG. 10.
# HIF-1α [6] = test: IGF-1 induced HIF-1α expression in HCT-116 cells; assay type: cell-based; settings: HCT116 human colon cancer cells, 20% O2
# From the text: (§3) The band densities of HIF-1α were normalized by the bands of CoCl2 which was used as the positive control.
# (§4) HIF-1α is a major transactivation factor which is central to the induction of VEGF as well as iNOS and many other genes very important in the development of cancer. VEGF is very important in angiogenesis essential for tumor growth and is a major target of several anti-cancer companies.
# HIF-1α [7] = test: IGF-1 induced HIF-1α expression in Hepa 1-6 cells; assay type: cell-based; settings: mouse hepatocellular carcinoma cell line (Hepa 1-6)
# From the text: as §3, §4
# c-MET = c-MET (Homo sapiens, UniProt P08581); test: c-MET inhibition
# [8] = cited from earlier work
# [9] = PBN started 5 days before surgery
# c-MET, sequence (P08581 25-1390): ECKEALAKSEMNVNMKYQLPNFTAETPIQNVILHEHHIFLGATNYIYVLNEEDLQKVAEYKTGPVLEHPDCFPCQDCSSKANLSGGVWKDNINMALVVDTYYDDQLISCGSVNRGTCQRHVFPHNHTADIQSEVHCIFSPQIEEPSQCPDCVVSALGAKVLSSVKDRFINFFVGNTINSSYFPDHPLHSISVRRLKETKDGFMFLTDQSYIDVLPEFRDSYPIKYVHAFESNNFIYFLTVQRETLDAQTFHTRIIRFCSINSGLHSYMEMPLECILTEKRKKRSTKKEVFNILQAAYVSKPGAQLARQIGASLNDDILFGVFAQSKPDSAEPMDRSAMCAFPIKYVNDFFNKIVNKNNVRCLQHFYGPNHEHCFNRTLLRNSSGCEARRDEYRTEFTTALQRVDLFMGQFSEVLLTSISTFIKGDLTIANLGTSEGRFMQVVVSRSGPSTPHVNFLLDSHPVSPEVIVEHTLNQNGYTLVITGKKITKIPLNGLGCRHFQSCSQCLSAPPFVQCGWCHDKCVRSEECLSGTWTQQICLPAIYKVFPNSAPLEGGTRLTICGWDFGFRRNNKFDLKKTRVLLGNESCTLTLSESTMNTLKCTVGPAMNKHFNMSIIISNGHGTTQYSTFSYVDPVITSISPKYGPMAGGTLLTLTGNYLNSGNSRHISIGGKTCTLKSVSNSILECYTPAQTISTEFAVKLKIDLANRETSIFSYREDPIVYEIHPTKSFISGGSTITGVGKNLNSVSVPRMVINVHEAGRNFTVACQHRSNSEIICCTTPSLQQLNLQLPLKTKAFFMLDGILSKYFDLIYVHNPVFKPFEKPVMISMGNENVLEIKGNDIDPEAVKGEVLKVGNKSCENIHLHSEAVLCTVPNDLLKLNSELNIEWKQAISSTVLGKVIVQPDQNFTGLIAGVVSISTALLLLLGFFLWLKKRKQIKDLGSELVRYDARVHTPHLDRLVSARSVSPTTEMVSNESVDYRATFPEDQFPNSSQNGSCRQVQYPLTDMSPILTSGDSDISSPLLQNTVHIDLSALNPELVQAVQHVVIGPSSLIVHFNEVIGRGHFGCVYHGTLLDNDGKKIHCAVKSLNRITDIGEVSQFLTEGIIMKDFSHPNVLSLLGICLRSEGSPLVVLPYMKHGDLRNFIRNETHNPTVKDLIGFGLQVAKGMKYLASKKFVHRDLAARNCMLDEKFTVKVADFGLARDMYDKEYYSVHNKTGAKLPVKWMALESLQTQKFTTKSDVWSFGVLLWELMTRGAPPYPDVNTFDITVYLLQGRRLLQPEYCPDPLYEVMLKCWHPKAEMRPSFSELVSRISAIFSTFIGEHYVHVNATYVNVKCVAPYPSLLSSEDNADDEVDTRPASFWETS
smiles,measurement,setting,value
"CC(C)(C)[N+]([O-])=Cc1ccc(O)cc1 [4-hydroxy-PBN, 4-hydroxyphenyl N-tert-butylnitrone]",animals with suppressed and recessed tumor growth,"C6 gliomas [1]; 75 mg/kg/day in drinking water from 5 days prior to implantation, n=5",40%
same,animals with decrease in tumor growth and angiogenesis,"C6 gliomas [2]; C6 gliomas, morphology and angiography data",2 of 5
"CC(C)(C)[N+]([O-])=Cc1ccccc1 [PBN, phenyl N-tert-butyl nitrone]",doubling time,C6 gliomas [1]; PBN 75 mg/kg/day in drinking water started on the day of surgery or 5 days after,2.3 to 2.4 days
same,doubling time,C6 gliomas [1]; [9],4.1 days
same,maximum tumor volume,C6 gliomas [1]; [9],50 mm^3
same,tumor course after maximal volume,C6 gliomas [1]; PBN started on the day of surgery or 5 days after,the tumor starts to regress until it almost completely disappears
same,animals with recession of tumor / eradication of further tumor formation,"C6 gliomas [1]; PBN starting 14 days after cell implantation, tumors >50 mm3",40%
same,glioma growth outcome,"C6 gliomas [1]; continuous PBN starting 5 days prior to cell implantation, n=5",recession to no tumor in all animals studied; also recorded: either not develop or recede once intially formed in all rats
same,glioma development,F98 gliomas,not develop in all rats
same,normalized tumor arterial blood volumes,"C6 gliomas [2]; C6 glioma, PBN 5 days prior to cell implantation, quantitative MR angiography",suppression and/or a decrease in blood volumes
same,changes in angiogenesis (angiograms),"C6 gliomas [2]; C6 gliomas, Example 2, qualitative MR angiography",did not seem to induce changes in angiogenesis
same,NAA levels compared to choline (Cho) levels,C6 gliomas [3],increase to normal levels
same,lipid levels compared to creatine (Cr) levels,C6 gliomas [3],decrease to normal levels
same,"histology (H&E), tumor cells",C6 gliomas [4],no evidence of tumor cells
same,rats surviving longer than 40 days (study end-point),C6 gliomas [5]; PBN 5 days prior to C6 cell implantation,Eighty
same,rats surviving longer than 40 days,C6 gliomas [5]; PBN 14 days after C6 cell implantation,40%
same,induction of HIF-1α,HIF-1α [6],inhibits the induction of HIF-1α
same,induction of HIF-1α,HIF-1α [7],inhibits the induction of HIF-1α
same,c-MET inhibition,c-MET,inhibits c-MET
same,tissue distribution,"[8]; rat, in vivo",readily and rapidly distributed almost equally to all tissues
same,half-life,[8]; rats,about 132 minutes
